Experiments:
[1] = system: rape; assay: Test B pre/postemergence rape; format: in vivo, Brassica napus
Summary of the method: (§1)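 Herbicidal effect was estimated by eye on a ten-point control scale after plants spent twelve to sixteen days in a greenhouse following soil or foliar treatment. Foliar sprays targeted plants at one to four leaves; all doses were formulated in a non-phytotoxic solvent with surfactant.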

[2] = system: crabgrass; assay: Test B pre/postemergence crabgrass; format: in vivo, Digitaria sanguinalis
Summary of the method: as §1

[3] = system: wild oat; assay: Test B pre/postemergence wild oat; format: in vivo, Avena fatua
Summary of the method: as §1

[4] = system: rice; assay: Test B flood test rice; format: in vivo, Oryza sativa
Summary of the method: (§2)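 Each value is a visual injury score relative to controls, with 10 meaning complete control and 0 no effect. Evaluation took place twelve to sixteen days after the 2-leaf-stage plants were treated and kept in the greenhouse.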

[5] = system: soybean; assay: Test B pre/postemergence soybean; format: in vivo, Glycine max
Summary of the method: as §1

[6] = system: smallflower flatsedge; assay: Test B flood test smallflower flatsedge; format: in vivo, Cyperus difformis
Summary of the method: as §2

[7] = system: corn; assay: Test B pre/postemergence corn; format: in vivo, Zea mays
Summary of the method: as §1

[8] = system: duck salad; assay: Test B flood test duck salad; format: in vivo, Heteranthera limosa
Summary of the method: as §2

[9] = system: sugar beet; assay: Test B pre/postemergence sugar beet; format: in vivo, Beta vulgaris
Summary of the method: as §1

[10] = system: pigweed; assay: Test B pre/postemergence pigweed; format: in vivo, Amaranthus retroflexus
Summary of the method: as §1

[11] = system: purple nutsedge; assay: Test B pre/postemergence purple nutsedge; format: in vivo, Cyperus rotundus
Summary of the method: as §1

[12] = system: surinam grass; assay: Test B pre/postemergence surinam grass; format: in vivo, Brachiaria decumbens
Summary of the method: as §1

[13] = system: blackgrass; assay: Test B pre/postemergence blackgrass; format: in vivo, Alopecurus myosuroides
Summary of the method: as §1

[14] = system: velvetleaf; assay: Test B pre/postemergence velvetleaf; format: in vivo, Abutilon theophrasti
Summary of the method: as §1

[15] = system: wheat; assay: Test B pre/postemergence wheat; format: in vivo, Triticum aestivum
Summary of the method: as §1

[16] = Postemergence, Rate 125 g/ha, scale of 0 to 10 where 0 is no effect and 10 is complete control
[17] = Postemergence, Rate 250 g/ha, scale of 0 to 10, 0 is no effect, 10 is complete control
[18] = Postemergence, Rate 500 g/ha, scale of 0 to 10 where 0 is no effect and 10 is complete control
[19] = Preemergence, Rate 62 g/ha, scale of 0 to 10 where 0 is no effect and 10 is complete control
[20] = Preemergence, Rate 125 g/ha, scale of 0 to 10 where 0 is no effect and 10 is complete control
[21] = Preemergence, Rate 250 g/ha, scale 0 to 10 (0 no effect, 10 complete control)
[22] = Preemergence, Rate 500 g/ha, scale of 0 to 10 where 0 is no effect and 10 is complete control
[23] = Postemergence, Rate 62 g/ha, scale 0 to 10, 0 is no effect, 10 is complete control
[24] = Rate 62 g/ha, flood test species, Pre-emergence, visual evaluation after twelve to sixteen days
[25] = Rate 125 g/ha, under heading Pre-emergence, flood test species, visual evaluation after twelve to sixteen days
[26] = Rate 250 g/ha, Pre-emergence (flood test species), scale 0 to 10, 0 is no effect, 10 is complete control
[27] = Rate 500 g/ha, Pre-emergence section of Table B, 0 to 10 scale (0 no effect, 10 complete control)

CC(C)N(C(=O)n1oc(=O)n(CC(=O)C2CCC2)c1=O)c1ccc(Cl)cc1 [Compound 643]
3: Crabgrass plant response rating [2, 20]
8: Plant response rating, Blackgrass [13, 22]
1: Wild oats plant response rating [3, 16] | Wild oats plant response rating [3, 17] | Plant response rating, Wild oats [3, 22] | Plant response rating, Soybean [5, 23] | Soybean plant response rating [5, 16] | Soybean plant response rating [5, 17]
0: Rape plant response rating [1, 16] | Rape plant response rating [1, 17] | Plant response rating, Rape [1, 18] | Rape plant response rating [1, 19] | Rape plant response rating [1, 20] | Plant response rating, Rape [1, 21] | Plant response rating, Crabgrass [2, 23] | Crabgrass plant response rating [2, 16] | Crabgrass plant response rating [2, 17] | Crabgrass plant response rating [2, 19] | Plant response rating, Wild oats [3, 23] | Wild oats plant response rating [3, 19] | Wild oats plant response rating [3, 20] | Plant response rating, Wild oats [3, 21] | Plant response rating, Rice (0 to 10 scale, 0 is no effect, 10 is complete control) [4, 24] | Rice plant response rating (0 to 10 scale, 0 is no effect, 10 is complete control) [4, 25] | Rice plant response rating [4, 26] | Rice plant response rating [4, 27] | Soybean plant response rating [5, 19] | Soybean plant response rating [5, 20] | Plant response rating, Soybean [5, 21] | Plant response rating, Soybean [5, 22] | Plant response rating, S. Flatsedge (0 to 10 scale, 0 is no effect, 10 is complete control) [6, 24] | S. Flatsedge plant response rating (0 to 10 scale, 0 is no effect, 10 is complete control) [6, 25] | S. Flatsedge plant response rating [6, 26] | S. Flatsedge plant response rating [6, 27] | Plant response rating, Corn [7, 23] | Corn plant response rating [7, 16] | Corn plant response rating [7, 17] | Plant response rating, Corn [7, 18] | Corn plant response rating [7, 19] | Corn plant response rating [7, 20] | Plant response rating, Corn [7, 21] | Plant response rating, Corn [7, 22] | Plant response rating, Ducksalad (0 to 10 scale, 0 is no effect, 10 is complete control) [8, 24] | Ducksalad plant response rating (0 to 10 scale, 0 is no effect, 10 is complete control) [8, 25] | Ducksalad plant response rating [8, 26] | Ducksalad plant response rating [8, 27] | Plant response rating, Sugarbeets [9, 23] | Sugarbeets plant response rating [9, 16] | Sugarbeets plant response rating [9, 17] | Sugarbeets plant response rating [9, 19] | Sugarbeets plant response rating [9, 20] | Plant response rating, Sugarbeets [9, 21] | Plant response rating, Sugarbeets [9, 22] | Plant response rating, Redroot pigweed [10, 23] | Redroot pigweed plant response rating [10, 16] | Redroot pigweed plant response rating [10, 17] | Redroot pigweed plant response rating [10, 19] | Redroot pigweed plant response rating [10, 20] | Plant response rating, Redroot pigweed [10, 21] | Plant response rating, Nutsedge [11, 23] | Nutsedge plant response rating [11, 16] | Nutsedge plant response rating [11, 17] | Plant response rating, Nutsedge [11, 18] | Nutsedge plant response rating [11, 19] | Nutsedge plant response rating [11, 20] | Plant response rating, Nutsedge [11, 21] | Plant response rating, Nutsedge [11, 22] | Plant response rating, B. signalgrass [12, 23] | Plant response rating, B. signalgrass [12, 16] | B. signalgrass plant response rating [12, 17] | B. signalgrass plant response rating [12, 19] | Plant response rating, Blackgrass [13, 23] | Blackgrass plant response rating [13, 16] | Blackgrass plant response rating [13, 17] | Blackgrass plant response rating [13, 19] | Blackgrass plant response rating [13, 20] | Plant response rating, Blackgrass [13, 21] | Plant response rating, Velvetleaf [14, 23] | Velvetleaf plant response rating [14, 16] | Velvetleaf plant response rating [14, 17] | Velvetleaf plant response rating [14, 19] | Velvetleaf plant response rating [14, 20] | Plant response rating, Velvetleaf [14, 21] | Plant response rating, Velvetleaf [14, 22] | Plant response rating, Wheat [15, 23] | Wheat plant response rating [15, 16] | Wheat plant response rating [15, 17] | Wheat plant response rating [15, 19] | Wheat plant response rating [15, 20] | Plant response rating, Wheat [15, 21] | Plant response rating, Wheat [15, 22]
9: Plant response rating, Crabgrass [2, 21]
4: Plant response rating, Blackgrass [13, 18]
10: Plant response rating, Crabgrass [2, 22]
2: Plant response rating, B. signalgrass [12, 18] | B. signalgrass plant response rating [12, 20] | Plant response rating, B. signalgrass [12, 21]
6: Plant response rating, Rape [1, 22] | Plant response rating, Crabgrass [2, 18] | Plant response rating, B. signalgrass [12, 22]
5: Plant response rating, Redroot pigweed [10, 22]
